Key:
isolate of CHL004 = experiment: Use as phosphate source for growth; format: cell-based, Pseudomonas aeruginosa
Excerpt: In Wanner (16), it is noted that organophosphates can be directly transported to the cytoplasm of E. coli and S. typhimurium, or they can be hydrolyzed in the periplasm by phosphatases, after which the phosphate is transported to the cytoplasm.

[1] = Solubility of Pb(NO3)2 in BPTN, ICAP trace metal analysis before and after 0.2 micrometer filtering; format: physicochemical; settings: n=4
P. aeruginosa CHL004 = experiment: Growth in medium with Pb(NO3)2; format: cell-based, Pseudomonas aeruginosa; settings: Pb(NO3)2 increased from zero to 1 mM in BPTN
Description: All cultures were grown at 29° C. in a water bath incubator with shaking at a speed of 200 rpm. The cultures were inoculated with a saturated overnight culture in BPTN. Overnight cultures (˜18 hours) were prepared from −80° C. freezer stocks. Data were typically obtained after approximately three or more doublings, and only data between an optical density at 650 nm (OD650) of 0.1 and half the saturation cell density were used for analysis.
Growth rate and saturation cell density studies. The OD650 was measured using a Perkin Elmer Lambda 2 UV/VIS spectrometer. The cell path length was 10 mm. Duplicate 100 μL aliquots were taken from growing cultures and diluted with 900 microliters of a solution having a minimum concentration of 62 mM NaNO3. The same diluent was used within a given growth rate curve. Sixty two mM NaNO3 was determined to be isosmotic with BPTN. Osmolalities were determined using a Precision Instruments microOsmette freezing point depression osmometer calibrated at 0, 100, and 500 mOsm.
Growth in medium with Pb(NO3)2. […] The variances from the growth rate curve fittings for BPTN+1 mM Pb(NO3) 2 are typically equal to or smaller than those for BPTN. […] A linear relationship between CFU/mL and OD650 is expected if the extent of scattering is proportional to the cell density in the cell slurry. […]

Compound	use as a phosphate source (isolate of CHL004)	Pb^2+ concentration after filtering ([1]; 0.2 micrometer PES syringe filter) [mM]	Pb^2+ concentration before filtering [1] [mM]	change of growth rate constant of CHL004 with Pb(NO3)2 concentration (P. aeruginosa CHL004)
N[C@@H](COP(=O)(O)O)C(=O)O [O-Phospho-L-serine]	can be used as a phosphate source			
O=[N+]([O-])[O-].O=[N+]([O-])[O-].[Pb+2] [Pb(NO3)2]		25.1 ± 1.3	24.0 ± 0.6	decreases

Reference: patent US6489157B1, “Medium for cultivating microorganisms” (priority 1999, dated 2002)
